According to US8679842B2, “Method for increasing the pool of Ngn3+ endocrine progenitor cells and pancreatic endocrine cell mass” (Assistance Publique—Hopitaux de Paris, priority 2009, dated 2014):
“Also recorded” adds a separate entry of the source.

Assays:
[1] = system: early progenitors expressing PDX1; assay: BrdU incorporation: proliferation of early PDX1 progenitors in cultured embryonic pancreases; type: cell-based, rat; conditions: 100 μM; 24 h culture, BrdU during last hour (FIG. 3D); control 31.24%±2.8%
Protocol: Dorsal pancreatic rudiments were cultured on 0.45 μm filters (Millipore) at the air-medium interface in a 35 mm sterile Petri dishes containing 2 ml RPMI-1640 medium (Invitrogen) supplemented with 100 U/ml penicillin, 100 μg/ml streptomycin, 10 mmol/L HEPES, 2 mmol/L L-glutamine, 1× non-essential aminoacids (Invitrogen) and 10% heat-inactivated fetal calf serum (HyClone, Logan, Utah, USA). Glibenclamide (MP Biomedical) and nifedipine (Sigma), used at the indicated concentrations, were first dissolved as concentrated solutions in dimethylsulfoxide DMSO (Sigma), the final concentration of DMSO in the culture medium was less than 0.5% (vol/vol). The culture medium was changed every day. […]
Quantification—To quantify the surface area of insulin, glucagon, PCSK1/3, CPA and amylase-expressing cells, all sections of each pancreatic rudiment were digitized. […] The surface of insulin, glucagon, PCSK1/3, CPA, amylase, and Hoechst stainings were quantified using Iplab (Scanalytics). […] To measure proliferation of the early progenitors expressing PDX1, we counted the frequency of BrdU positive progenitors expressing PDX1 among 3000 early progenitors expressing PDX1 per rudiment. To quantify the absolute number of NGN3-expressing cells, pancreatic rudiments were sectioned and all sections were stained with an anti-NGN3 antibody. Positive cells were counted on all sections of each pancreatic rudiment. […]

[2] = system: E13.5 Rat embryonic pancreases; assay: Real-time PCR of gene expression in cultured embryonic pancreases; type: cell-based
Source text: (§1) Pregnant Wistar rats were purchased from the Janvier Breeding centre (CERJ, LeGenet, France). The first day postcoitum was taken as embryonic day (E) 0.5. Pregnant rats were killed with CO2 asphyxiation according to guidelines issued by the French Animal Care Committee. Dorsal pancreatic buds from E13.5 rat embryos were dissected as described previously (Miralles et al., 1998). Briefly, the stomach, pancreas and a small portion of the intestine were dissected together, and then the pancreas primordium was isolated.
(§2) Dorsal pancreatic rudiments were cultured on 0.45 μm filters (Millipore) at the air-medium interface in a 35 mm sterile Petri dishes containing 2 ml RPMI-1640 medium (Invitrogen) supplemented with 100 U/ml penicillin, 100 μg/ml streptomycin, 10 mmol/L HEPES, 2 mmol/L L-glutamine, 1× non-essential aminoacids (Invitrogen) and 10% heat-inactivated fetal calf serum (HyClone, Logan, Utah, USA). Glibenclamide (MP Biomedical) and nifedipine (Sigma), used at the indicated concentrations, were first dissolved as concentrated solutions in dimethylsulfoxide DMSO (Sigma), the final concentration of DMSO in the culture medium was less than 0.5% (vol/vol). The culture medium was changed every day. Glibenclamide and nifedipine were added to the media daily. The cultures were incubated at 37° C. in a humidified atmosphere composed of 95% air and 5% CO2. At the end of the culture period, the pancreases were photographed, and fixed as described below or harvested for RNA extraction
Total RNA was isolated from pools of at least three pancreases using the Qiagen RNeasy Microkit (Qiagen, Courtaboeuf, France) and reverse transcribed using Superscript reagents (Invitrogen). Real-time PCR was performed with the 7300 Fast real-time PCR system (Applied Bio system) using either Taqman universal PCR universal PCR master mix or SYBR green PCR master mix (Applied Biosystem) with primers and labelled probes specific for each gene. Peptidylpropyl isomerase A/Cyclophilin A was used as endogenous control and E16.5 pancreas cDNA as calibrator sample. The data were analyzed by comparative cycle threshold method (Livak et al., 1997) and presented as the fold change in gene expression. At least three pools of explants were analysed by condition.

[3] = system: E13.5 Rat embryonic pancreases; assay: Immunohistochemistry and quantification of stained surface area / cell number in cultured embryonic pancreases; type: cell-based
Source text: as §1, §2
Immunochemistry—The pancreatic rudiments were fixed in 10% formalin, pre-embedded in agarose gel (4% of type VII low-gelling-temperature agarose (Sigma) in H2O) and embedded in paraffin. Immunohistochemistry was performed on 4-μm paraffin sections as previously described (Duvillie et al., 2006). The primary antibodies were mouse anti insulin (1/2000; Sigma), rabbit anti-glucagon (1/1000; Diasorin), rabbit anti-amylase (1/300; Sigma), rabbit anti-carboxypeptidase A (1/600; Biogenesis, Kidlington, Oxford, UK), rabbit anti-PDX1 (1/1000) (Duvillie et al., 2003) mouse anti-BrdUrd5 (1/2; Amersham Biosciences, Buckingham, UK), rabbit anti-PCK1/3, rabbit anti-Ngn3 (1/100, Guillemain et al., 2007), rabbit anti-KIR6.2 and anti-SUR1 (1/100, Santa Cruz). The fluorescent secondary antibodies were fluorescein anti-rabbit antibody (1/200; Jackson Immunoresearch, Baltimore, Md., USA), fluorescein goat anti-rabbit Alexa Fluor 488 (1/400; Invitrogen) and Texas red anti-mouse antibody (1/200; Jackson). Nuclei were stained in blue with Hoechst 33342 (0.3 μg/ml; Invitrogen). Ngn3 detection was performed as previously described (Guillemain et al., 2007) using the Vectastain elite ABC kit (Vector laboratories).
(§3) Quantification—To quantify the surface area of insulin, glucagon, PCSK1/3, CPA and amylase-expressing cells, all sections of each pancreatic rudiment were digitized. Alternate sections were examined to avoid counting the same cell twice. The surface of insulin, glucagon, PCSK1/3, CPA, amylase, and Hoechst stainings were quantified using Iplab (Scanalytics). The stained areas were summed to obtain the total surface area per rudiment in mm^2. To measure proliferation of the early progenitors expressing PDX1, we counted the frequency of BrdU positive progenitors expressing PDX1 among 3000 early progenitors expressing PDX1 per rudiment. To quantify the absolute number of NGN3-expressing cells, pancreatic rudiments were sectioned and all sections were stained with an anti-NGN3 antibody. Positive cells were counted on all sections of each pancreatic rudiment. A minimum of three rudiments was analyzed per condition.

[4] = system: E13.5 Rat embryonic pancreases; assay: E13.5 rat embryonic pancreas organ culture: growth, morphology and toxicity (Hoechst staining); type: cell-based
Source text: as §1, §2, §3
Using the in vitro model as described above (E13.5 Rat embryonic pancreases cultured at the air/medium interface on a floating filter), we examined the effects of increased concentrations of the sulphonylurea glibenclamide (an inhibitor of KATP channels) on pancreas development. […] Under both conditions, the epithelium grew rapidly, spread into the mesenchyme, and developed lobules. There is no difference in apoptosis in pancreases cultured 7 days without or with 10 and 100 μM glibenclamide as shown by the Hoechst staining of the nuclei (FIG. 1B).

COc1ccc(Cl)cc1C(=O)NCCc1ccc(S(=O)(=O)NC(=O)NC2CCCCC2)cc1 [glibenclamide]
percentage of PDX-1+ cells that incorporate BrdU [1]: 32.60%±4.2% | Pou3F4/Brn4 mRNA level ([2]; 100 μM, D7 (FIG. 2F)): significant increase | Ngn3 expression (mRNA) increase vs control ([2]; 100 μM, after 5 days of culture, p<0.001 (FIG. 3A)): sevenfold | Ngn3 mRNA level vs control ([2]; 100 μM, after the D5 peak (D7), p<0.001 (FIG. 3A)): dramatically higher | insulin expression (mRNA) ([2]; 100 μM, as early as D3 (FIG. 2A)): strongly reduced | Ngn3 expression (mRNA) vs control ([2]; 100 μM, day 1 and 3 (FIG. 3A)): similar | ZnT-8 expression (mRNA) ([2]; 100 μM, over the 7 days of culture (FIG. 2B)): did not affect | MafA expression (mRNA) ([2]; 100 μM, over the 7 days of culture (FIG. 2C)): did not affect | NeuroD1 mRNA level vs control ([2]; D5, data not shown): significantly increased | NeuroD1 mRNA level vs control ([2]; D7, data not shown): reminded enhanced | ZnT-8 expression vs control ([2]; Glib 5D, after 9, 11 and 14 days, p<0.01 (FIG. 4C)): dramatic increase | MafA expression vs control ([2]; Glib 5D, after 9, 11 and 14 days, p<0.01 (FIG. 4D)): dramatic increase | insulin mRNA level vs control ([2]; Glib-5D, D7 (FIG. 4B)): identical | insulin mRNA level increase vs control ([2]; Glib-5D, D9 (FIG. 4B)): threefold | insulin mRNA level increase vs control ([2]; Glib-5D, D11 (FIG. 4B)): twofold | insulin mRNA level increase vs control ([2]; Glib-5D, D14 (FIG. 4B)): threefold | ZnT-8 expression vs control ([2]; Glib-5D, after 7 days of culture (FIG. 4C)): similar | MafA expression vs control ([2]; Glib-5D, after 7 days of culture (FIG. 4D)): similar | NeuroD1 mRNA levels vs control ([2]; after 1 and 3 days of culture, data not shown): similar | increase in somatostatin expression ([2]; after 7 days of culture, data not shown): two-fold | number of NGN3+ cells vs control ([3]; 100 μM, 5 days of culture (FIG. 3B, 3C)): threefold higher; also recorded: increased number of NGN3 positive nuclei | surface area occupied by PCSK1/3 staining in PDX-1+ cells vs control ([3]; 100 μM, 7 days (FIG. 2D)): similar | increase of the number of glucagon-expressing cells ([3]; 100 μM, 7 days (FIG. 2E)): 3.5 fold | decrease of surface area occupied by the insulin-cell population ([3]; 7 days of culture, vs control, data not shown): 70% | insulin-positive cells (insulin-staining area) ([3]; Glib 5D pancreases, data not shown): significant increase | insulin-containing cells ([3]; Glib pancreases: glibenclamide during the 14-day culture period, data not shown): less | insulin-expressing cells ([3]; Glib-5D: 100 μM only during first 5 days, D9, D11 or D14 (FIG. 4A)): large number | pancreatic growth vs control ([4]; 10 nM, 100 nM, 1, 10 or 100 μM, 7 days of culture (FIG. 1A)): similar | branching of the epithelium ([4]; 100 μM (FIG. 1A)): more branched | apoptosis (Hoechst staining of the nuclei) vs control ([4]; 10 and 100 μM, 7 days (FIG. 1B)): no difference | toxicity by overall size of pancreases (Hoechst surface area) ([4]; 10 or 100 μM, 7 days (FIG. 1C)): lack of glibenclamide toxicity | pycnotic nuclei (Hoechst staining) ([4]; 7 days, indicated concentrations (FIG. 1B)): lack of pycnotic nuclei
